From ChEMBL document CHEMBL5346910, “N-sulfonyl peptide-hybrids as a new class of dengue virus protease inhibitors” (Eur J Med Chem, 2023) come the findings set out here.

Molecules are shown by their SMILES. A value given as a limit tells only on which side of the number the result lay.

The target in data set [1] is T1, Trypsin (Homo sapiens, UniProt P07477+P07478+P35030). Kind of data set: Stability of the compound assessed as trypsin (unknown origin) mediated compound degradation incubated for 60 mins by UV-based HPLC analysis. The data set is classed as ADME, protein assay. As to conditions: 1 h.
In data set [2] the target is T2, Genome polyprotein (dengue virus type 2, UniProt P29990). Kind of data set: Inhibition of DENV-2 NS2B-NS3 protease by biochemical enzymatic assay.
The target in data set [3] is T1, Trypsin. Description: Inhibition of trypsin (unknown origin) at 50 uM by biochemical assay relative to control. It counts as protein assay.
Data set [4] in a line: Cytotoxicity against human HeLa cells by CellTiter-Blue assay. The data set is classed as toxicity, cell-based.
Data set [5] in a line: Metabolic stability in rat liver microsomes assessed as parent compound remaining measured for 120 mins by UV-based HPLC analysis. The data set is classed as ADME, Microsome. As to conditions: read-out: Stability. Background: Microsomes from liver hold many membrane-bound enzymes, among them those of drug oxidation.
Data set [6] is described as follows: Stability of the compound assessed as alpha-chymotrypsin (unknown origin) mediated compound degradation incubated for 60 mins by UV-based HPLC analysis. The data set is classed as ADME. As to conditions: human, 1 h.
In data set [7] the target is Genome polyprotein (dengue virus type 2) (UniProt P29990). Kind of data set: Inhibition of DENV-2 NS2B-NS3 protease at 50 uM by biochemical enzymatic assay relative to control.
The target of data set [8] is Prothrombin (Homo sapiens) (UniProt P00734). Kind of data set: Inhibition of Thrombin (unknown origin) at 25 uM by biochemical assay relative to control.
Data set [9] deals with Genome polyprotein (West Nile virus) (UniProt P06935). Kind of data set: Inhibition of West Nile virus NS2B-NS3 protease at 50 uM by biochemical enzymatic assay relative to control.
The target of data set [10] is T2, Genome polyprotein. Kind of data set: Competitive inhibition of DENV-2 NS2B-NS3 protease assessed as inhibition constant by Cheng-Prusoff plot analysis.
The target of data set [11] is T3, Genome polyprotein (West Nile virus, UniProt P06935). Kind of data set: Inhibition of West Nile virus NS2B-NS3 protease assessed as inhibition constant.
In data set [12] the target is T3, Genome polyprotein. Description: Inhibition of West Nile virus NS2B-NS3 protease by biochemical enzymatic assay.

Chain of Genome polyprotein (West Nile virus) (P06935 whole entry): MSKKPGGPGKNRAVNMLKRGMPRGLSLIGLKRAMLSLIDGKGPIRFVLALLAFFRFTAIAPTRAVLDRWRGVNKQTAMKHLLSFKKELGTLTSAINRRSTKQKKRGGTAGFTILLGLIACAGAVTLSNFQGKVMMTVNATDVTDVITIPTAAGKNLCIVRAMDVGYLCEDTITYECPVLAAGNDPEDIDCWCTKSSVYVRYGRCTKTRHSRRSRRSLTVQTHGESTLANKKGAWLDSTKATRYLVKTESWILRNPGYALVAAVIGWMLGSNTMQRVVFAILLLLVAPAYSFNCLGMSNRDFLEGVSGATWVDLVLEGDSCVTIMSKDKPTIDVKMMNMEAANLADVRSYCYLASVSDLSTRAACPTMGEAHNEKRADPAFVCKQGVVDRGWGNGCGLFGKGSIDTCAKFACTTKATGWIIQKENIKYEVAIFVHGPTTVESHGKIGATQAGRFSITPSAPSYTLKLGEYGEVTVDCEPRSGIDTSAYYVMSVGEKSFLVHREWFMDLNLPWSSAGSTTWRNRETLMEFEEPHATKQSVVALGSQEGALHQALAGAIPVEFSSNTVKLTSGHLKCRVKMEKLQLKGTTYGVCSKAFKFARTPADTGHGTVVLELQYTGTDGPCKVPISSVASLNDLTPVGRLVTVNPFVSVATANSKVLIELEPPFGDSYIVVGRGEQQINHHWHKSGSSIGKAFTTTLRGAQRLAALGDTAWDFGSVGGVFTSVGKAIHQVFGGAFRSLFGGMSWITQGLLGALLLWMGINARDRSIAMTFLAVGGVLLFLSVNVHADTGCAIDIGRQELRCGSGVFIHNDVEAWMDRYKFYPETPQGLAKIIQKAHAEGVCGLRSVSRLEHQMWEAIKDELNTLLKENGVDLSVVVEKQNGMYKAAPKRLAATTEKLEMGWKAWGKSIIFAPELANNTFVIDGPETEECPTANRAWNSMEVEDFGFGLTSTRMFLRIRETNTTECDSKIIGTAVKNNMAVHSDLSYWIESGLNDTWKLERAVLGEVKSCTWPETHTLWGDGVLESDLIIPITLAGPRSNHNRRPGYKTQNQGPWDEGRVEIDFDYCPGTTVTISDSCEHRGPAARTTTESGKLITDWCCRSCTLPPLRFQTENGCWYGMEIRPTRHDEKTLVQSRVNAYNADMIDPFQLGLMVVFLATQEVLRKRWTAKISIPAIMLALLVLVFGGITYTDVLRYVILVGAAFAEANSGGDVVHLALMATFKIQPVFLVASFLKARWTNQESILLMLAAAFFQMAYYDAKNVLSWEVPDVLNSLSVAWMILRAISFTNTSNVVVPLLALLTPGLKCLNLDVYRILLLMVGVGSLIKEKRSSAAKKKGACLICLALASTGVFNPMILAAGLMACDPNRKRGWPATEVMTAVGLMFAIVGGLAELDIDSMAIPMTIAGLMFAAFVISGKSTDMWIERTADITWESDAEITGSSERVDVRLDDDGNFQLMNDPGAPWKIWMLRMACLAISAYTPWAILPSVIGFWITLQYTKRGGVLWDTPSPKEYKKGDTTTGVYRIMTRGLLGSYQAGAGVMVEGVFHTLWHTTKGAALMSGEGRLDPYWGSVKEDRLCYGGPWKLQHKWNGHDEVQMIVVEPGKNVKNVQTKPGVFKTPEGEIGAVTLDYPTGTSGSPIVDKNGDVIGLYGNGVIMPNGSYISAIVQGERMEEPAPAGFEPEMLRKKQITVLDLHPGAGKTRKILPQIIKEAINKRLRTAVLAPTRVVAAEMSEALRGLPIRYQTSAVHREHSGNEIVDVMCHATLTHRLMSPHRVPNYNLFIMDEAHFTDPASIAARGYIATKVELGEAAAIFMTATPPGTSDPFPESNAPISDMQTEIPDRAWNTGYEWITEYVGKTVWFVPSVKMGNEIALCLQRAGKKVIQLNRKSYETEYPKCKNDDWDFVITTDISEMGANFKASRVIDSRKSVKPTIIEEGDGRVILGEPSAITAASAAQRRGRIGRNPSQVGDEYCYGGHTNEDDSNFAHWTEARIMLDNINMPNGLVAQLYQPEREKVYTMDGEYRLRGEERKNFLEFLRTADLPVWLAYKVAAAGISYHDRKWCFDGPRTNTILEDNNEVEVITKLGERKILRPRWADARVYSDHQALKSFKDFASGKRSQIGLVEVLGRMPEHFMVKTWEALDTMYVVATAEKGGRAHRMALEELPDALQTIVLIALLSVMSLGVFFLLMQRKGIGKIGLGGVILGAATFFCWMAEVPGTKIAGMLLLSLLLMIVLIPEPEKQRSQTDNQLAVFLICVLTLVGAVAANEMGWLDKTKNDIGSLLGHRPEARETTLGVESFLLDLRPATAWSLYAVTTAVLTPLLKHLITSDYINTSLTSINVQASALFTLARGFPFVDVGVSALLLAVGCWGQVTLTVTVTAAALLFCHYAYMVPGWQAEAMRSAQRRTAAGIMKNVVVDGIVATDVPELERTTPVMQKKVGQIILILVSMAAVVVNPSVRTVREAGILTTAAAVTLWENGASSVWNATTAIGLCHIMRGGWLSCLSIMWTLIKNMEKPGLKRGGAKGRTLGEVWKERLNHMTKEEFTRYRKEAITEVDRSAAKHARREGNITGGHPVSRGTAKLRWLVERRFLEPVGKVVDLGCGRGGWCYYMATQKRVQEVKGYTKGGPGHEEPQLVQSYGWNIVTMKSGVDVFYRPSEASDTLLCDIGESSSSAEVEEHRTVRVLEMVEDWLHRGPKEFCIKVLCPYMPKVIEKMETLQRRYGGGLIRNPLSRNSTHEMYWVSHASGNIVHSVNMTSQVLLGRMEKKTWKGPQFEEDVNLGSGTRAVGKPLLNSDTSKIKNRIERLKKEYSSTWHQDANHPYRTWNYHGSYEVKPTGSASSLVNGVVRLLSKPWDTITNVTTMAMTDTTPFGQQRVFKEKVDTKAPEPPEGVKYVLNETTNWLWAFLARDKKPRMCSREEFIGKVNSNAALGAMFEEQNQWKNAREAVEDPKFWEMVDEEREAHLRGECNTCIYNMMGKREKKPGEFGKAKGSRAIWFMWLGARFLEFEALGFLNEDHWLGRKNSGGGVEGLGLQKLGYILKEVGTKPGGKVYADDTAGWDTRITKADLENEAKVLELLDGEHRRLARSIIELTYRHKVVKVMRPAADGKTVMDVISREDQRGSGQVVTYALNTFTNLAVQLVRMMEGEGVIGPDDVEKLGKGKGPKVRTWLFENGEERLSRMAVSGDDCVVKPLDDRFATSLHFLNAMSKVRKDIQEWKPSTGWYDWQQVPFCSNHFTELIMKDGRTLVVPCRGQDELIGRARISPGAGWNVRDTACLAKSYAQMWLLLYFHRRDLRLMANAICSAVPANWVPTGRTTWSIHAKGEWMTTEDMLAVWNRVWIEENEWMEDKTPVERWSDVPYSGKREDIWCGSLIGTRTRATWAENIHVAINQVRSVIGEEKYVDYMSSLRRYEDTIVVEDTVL
T3 sequence (P06935 1371-1501 limits assumed): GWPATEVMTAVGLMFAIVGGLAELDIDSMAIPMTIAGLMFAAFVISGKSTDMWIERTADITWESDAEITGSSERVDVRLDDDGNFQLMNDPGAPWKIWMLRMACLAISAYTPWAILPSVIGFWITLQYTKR
T3 sequence (P06935 1502-2120 limits assumed): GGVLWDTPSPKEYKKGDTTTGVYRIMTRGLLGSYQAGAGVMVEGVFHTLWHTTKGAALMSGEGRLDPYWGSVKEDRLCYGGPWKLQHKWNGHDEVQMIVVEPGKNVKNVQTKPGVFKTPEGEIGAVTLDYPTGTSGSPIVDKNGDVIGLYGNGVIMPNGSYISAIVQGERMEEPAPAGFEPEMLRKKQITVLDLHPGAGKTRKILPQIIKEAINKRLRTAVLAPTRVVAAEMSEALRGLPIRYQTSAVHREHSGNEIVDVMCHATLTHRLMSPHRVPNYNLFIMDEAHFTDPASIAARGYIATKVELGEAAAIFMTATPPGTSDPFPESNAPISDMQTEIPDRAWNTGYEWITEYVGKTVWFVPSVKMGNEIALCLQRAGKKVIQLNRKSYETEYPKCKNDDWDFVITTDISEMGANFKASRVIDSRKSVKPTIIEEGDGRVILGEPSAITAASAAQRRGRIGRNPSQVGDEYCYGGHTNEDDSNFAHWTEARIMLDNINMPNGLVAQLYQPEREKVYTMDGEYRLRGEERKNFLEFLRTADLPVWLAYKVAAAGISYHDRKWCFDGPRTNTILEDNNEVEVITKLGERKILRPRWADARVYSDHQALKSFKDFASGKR

Broadly, the IC50 is the concentration that gives 50% inhibition. High values mean weaker potency, low ones greater potency. What is called inhibition is the percentage by which the read-out fell short of the control. A high value points to a response far below the control. The CC50 is the concentration at which the toxic effect on the cells reaches its halfway point. Low values mean greater toxicity to the cells, high ones lower toxicity to the cells. In the case of `CN([C@@H](Cc1ccc(C(=N)N)cc1)C(=O)N[C@@H](CCCCN)C(=O)N[C@@H](C(N)=O)c1ccccc1)S(=O)(=O)c1ccccc1`, the Stability entry in data set [1] and in data set [6] was “Stable” in each case. Also, the IC50 in [2] amounted to 0.21 µM. The inhibition in data set [3] was 19.2%; in [7], 98.9%; in data set [8], 19.6%; in data set [9] it was 48.7%. In data set [4], this molecule displayed a CC50 greater than 200 µM. In data set [5], the remaining at 2 h turned out to be 100%.
By Ki is commonly meant the dissociation constant of the complex between target and ligand, obtained from inhibition or displacement. Regarding `CN([C@@H](Cc1ccc(C(=N)N)cc1)C(=O)N[C@@H](CCCCN)C(=O)N[C@@H](C(N)=O)c1ccc(OCc2ccc(Cl)c(Cl)c2)cc1)S(=O)(=O)c1ccccc1`, the Ki turned out to be 0.078 µM in data set [10] and 5.1 µM in [11]. In addition, the IC50 came out at 0.089 µM in data set [2] and 12.1 µM in [12]. The inhibition in data set [3] came to 11%; in [7] it was 98.6%; in data set [8], 15.8%; in data set [9], 84.8%. The molecule further displayed a CC50 in [4] of 45.3 µM.
